The species entered for experiment [1] is Homo sapiens. The experiment can be described thus: Selectivity index, ratio of IC50 for human PIK3C2B to IC50 for PI3Kbeta (unknown origin).
The target of experiment [2] is Phosphatidylinositol 4,5-bisphosphate 3-kinase catalytic subunit beta isoform (Homo sapiens, UniProt P42338). Nature of the experiment: Inhibition of PI3Kbeta (unknown origin).
In experiment [3] the target is Phosphatidylinositol 4-phosphate 3-kinase C2 domain-containing subunit beta (Homo sapiens) (UniProt O00750). The experiment can be described thus: Inhibition of human PIK3C2B using phosphatidylinositol as substrate at 1.37 nM after 1 hr by TR-FRET based Adapta universal kinase assay. (In general: In TR-FRET formats the signal depends on donor and acceptor labels being close together.)
Phosphatidylinositol 4-phosphate 3-kinase C2 domain-containing subunit beta (Homo sapiens), sequence (O00750 whole entry, the tested form may be a part): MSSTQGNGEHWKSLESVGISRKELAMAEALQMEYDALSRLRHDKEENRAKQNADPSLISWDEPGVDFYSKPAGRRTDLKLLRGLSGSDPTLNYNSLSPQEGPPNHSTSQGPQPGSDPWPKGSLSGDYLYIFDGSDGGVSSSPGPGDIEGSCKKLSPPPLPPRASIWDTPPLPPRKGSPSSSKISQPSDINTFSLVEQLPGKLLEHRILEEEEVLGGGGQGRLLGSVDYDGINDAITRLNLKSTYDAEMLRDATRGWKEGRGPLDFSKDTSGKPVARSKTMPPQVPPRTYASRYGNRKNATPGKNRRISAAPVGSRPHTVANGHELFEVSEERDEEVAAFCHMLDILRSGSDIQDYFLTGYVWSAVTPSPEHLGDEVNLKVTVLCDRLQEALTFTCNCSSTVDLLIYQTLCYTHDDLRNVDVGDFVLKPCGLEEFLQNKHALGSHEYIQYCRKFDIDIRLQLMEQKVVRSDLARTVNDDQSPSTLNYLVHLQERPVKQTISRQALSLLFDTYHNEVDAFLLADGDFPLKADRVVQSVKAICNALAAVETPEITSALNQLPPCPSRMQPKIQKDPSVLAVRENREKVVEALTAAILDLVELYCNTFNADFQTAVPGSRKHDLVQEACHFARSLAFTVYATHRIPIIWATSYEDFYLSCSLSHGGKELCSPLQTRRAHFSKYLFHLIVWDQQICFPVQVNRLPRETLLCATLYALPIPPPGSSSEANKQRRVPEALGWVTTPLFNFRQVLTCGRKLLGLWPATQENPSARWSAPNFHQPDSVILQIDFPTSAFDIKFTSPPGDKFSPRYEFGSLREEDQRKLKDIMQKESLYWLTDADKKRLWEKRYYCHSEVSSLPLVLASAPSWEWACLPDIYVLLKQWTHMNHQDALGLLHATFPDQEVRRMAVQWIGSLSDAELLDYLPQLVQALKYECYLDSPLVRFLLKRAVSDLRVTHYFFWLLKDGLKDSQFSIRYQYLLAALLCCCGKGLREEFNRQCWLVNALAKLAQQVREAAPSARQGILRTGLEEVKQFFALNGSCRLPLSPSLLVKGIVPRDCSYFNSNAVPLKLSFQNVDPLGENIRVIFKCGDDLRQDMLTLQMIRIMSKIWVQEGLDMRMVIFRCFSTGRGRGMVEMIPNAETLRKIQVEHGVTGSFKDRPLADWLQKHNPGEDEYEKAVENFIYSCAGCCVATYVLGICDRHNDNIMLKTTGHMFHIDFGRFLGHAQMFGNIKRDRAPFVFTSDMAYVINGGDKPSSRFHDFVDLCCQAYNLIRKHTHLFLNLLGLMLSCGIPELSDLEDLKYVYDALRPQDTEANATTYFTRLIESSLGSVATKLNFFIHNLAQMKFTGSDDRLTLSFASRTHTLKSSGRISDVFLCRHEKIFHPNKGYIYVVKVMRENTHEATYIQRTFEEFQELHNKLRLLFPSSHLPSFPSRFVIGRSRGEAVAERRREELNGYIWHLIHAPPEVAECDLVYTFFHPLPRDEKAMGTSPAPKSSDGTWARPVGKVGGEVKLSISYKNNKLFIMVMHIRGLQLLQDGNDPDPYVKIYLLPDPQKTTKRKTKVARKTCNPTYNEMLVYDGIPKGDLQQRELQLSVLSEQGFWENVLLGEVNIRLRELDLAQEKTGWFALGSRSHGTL

For experiment [4] the target is unchanged. The experiment can be described thus: Inhibition of human PIK3C2B using phosphatidylinositol as substrate at 111 nM after 1 hr by TR-FRET based Adapta universal kinase assay.
For experiment [5] the target is unchanged. Nature of the experiment: Inhibition of human PIK3C2B using phosphatidylinositol as substrate at 1000 nM after 1 hr by TR-FRET based Adapta universal kinase assay.
Experiment [6] concerns the target T1, Phosphatidylinositol 4-phosphate 3-kinase C2 domain-containing subunit alpha (Homo sapiens, UniProt O00443). The experiment can be described thus: Inhibition of human PIK3C2A using phosphatidylinositol as substrate at 9.1 nM after 1 hr by TR-FRET based Adapta universal kinase assay relative to control.
Experiment [7] has as its target T1, Phosphatidylinositol 4-phosphate 3-kinase C2 domain-containing subunit alpha. Nature of the experiment: Inhibition of human PIK3C2A using phosphatidylinositol as substrate at 3.03 nM after 1 hr by TR-FRET based Adapta universal kinase assay relative to control.
Experiment [8] addresses Phosphatidylinositol 4-phosphate 3-kinase C2 domain-containing subunit beta (Homo sapiens) (UniProt O00750). The experiment can be described thus: Inhibition of human PIK3C2B using phosphatidylinositol as substrate at 37 nM after 1 hr by TR-FRET based Adapta universal kinase assay.
Experiment [9] has the same target. The experiment can be described thus: Inhibition of human PIK3C2B using phosphatidylinositol as substrate at 0.153 nM after 1 hr by TR-FRET based Adapta universal kinase assay.
The target of experiment [10] is T1, Phosphatidylinositol 4-phosphate 3-kinase C2 domain-containing subunit alpha. Nature of the experiment: Inhibition of human PIK3C2A using phosphatidylinositol as substrate and 10 uM ATP after 1 hr by TR-FRET based Adapta universal kinase assay.
Experiment [11] shares this target. The experiment can be described thus: Inhibition of human PIK3C2A using phosphatidylinositol as substrate at 6667 nM after 1 hr by TR-FRET based Adapta universal kinase assay relative to control.
The target of experiment [12] is Phosphatidylinositol 4-phosphate 3-kinase C2 domain-containing subunit beta (Homo sapiens) (UniProt O00750). Nature of the experiment: Inhibition of human PIK3C2B using phosphatidylinositol as substrate at 12.3 nM after 1 hr by TR-FRET based Adapta universal kinase assay.
In experiment [13] the target is T1, Phosphatidylinositol 4-phosphate 3-kinase C2 domain-containing subunit alpha. The experiment can be described thus: Inhibition of human PIK3C2A using phosphatidylinositol as substrate at 2222 nM after 1 hr by TR-FRET based Adapta universal kinase assay relative to control.
Experiment [14] has the same target. Nature of the experiment: Inhibition of human PIK3C2A using phosphatidylinositol as substrate at 741 nM after 1 hr by TR-FRET based Adapta universal kinase assay relative to control.
Experiment [15] shares this target. The experiment can be described thus: Inhibition of human PIK3C2A using phosphatidylinositol as substrate at 82 nM after 1 hr by TR-FRET based Adapta universal kinase assay relative to control.
For experiment [16], the species on record is Homo sapiens. The experiment can be described thus: Selectivity index, ratio of IC50 for human PIK3C2A to IC50 for human PIK3C2B.
Experiment [17] addresses T1, Phosphatidylinositol 4-phosphate 3-kinase C2 domain-containing subunit alpha. The experiment can be described thus: Inhibition of human PIK3C2A using phosphatidylinositol as substrate at 27.3 nM after 1 hr by TR-FRET based Adapta universal kinase assay relative to control.
Experiment [18] shares this target. The experiment can be described thus: Inhibition of human PIK3C2A using phosphatidylinositol as substrate at 247 nM after 1 hr by TR-FRET based Adapta universal kinase assay relative to control.
Experiment [19] deals with Phosphatidylinositol 4-phosphate 3-kinase C2 domain-containing subunit beta (Homo sapiens) (UniProt O00750). The experiment can be described thus: Inhibition of human PIK3C2B using phosphatidylinositol as substrate at 4.1 nM after 1 hr by TR-FRET based Adapta universal kinase assay.
The target is the same in experiment [20]. The experiment can be described thus: Inhibition of human PIK3C2B using phosphatidylinositol as substrate at 0.051 nM after 1 hr by TR-FRET based Adapta universal kinase assay.
The target of experiment [21] is T1, Phosphatidylinositol 4-phosphate 3-kinase C2 domain-containing subunit alpha. Nature of the experiment: Inhibition of human PIK3C2A using phosphatidylinositol as substrate at 20000 nM after 1 hr by TR-FRET based Adapta universal kinase assay relative to control.
The target of experiment [22] is Phosphatidylinositol 4-phosphate 3-kinase C2 domain-containing subunit beta (Homo sapiens) (UniProt O00750). Nature of the experiment: Inhibition of human PIK3C2B using phosphatidylinositol as substrate at 0.46 nM after 1 hr by TR-FRET based Adapta universal kinase assay.
For experiment [23] the target is unchanged. The experiment can be described thus: Inhibition of human PIK3C2B using phosphatidylinositol as substrate at 333 nM after 1 hr by TR-FRET based Adapta universal kinase assay.

Usually IC50 stands for the concentration needed to halve the response being measured. Low readings indicate higher potency, high ones lower potency. As a reminder, the inhibition is the relative decrease from the control value, in per cent.

SMILES strings stand for the structures.

T1 sequence (O00443 whole entry, the tested form may be a part): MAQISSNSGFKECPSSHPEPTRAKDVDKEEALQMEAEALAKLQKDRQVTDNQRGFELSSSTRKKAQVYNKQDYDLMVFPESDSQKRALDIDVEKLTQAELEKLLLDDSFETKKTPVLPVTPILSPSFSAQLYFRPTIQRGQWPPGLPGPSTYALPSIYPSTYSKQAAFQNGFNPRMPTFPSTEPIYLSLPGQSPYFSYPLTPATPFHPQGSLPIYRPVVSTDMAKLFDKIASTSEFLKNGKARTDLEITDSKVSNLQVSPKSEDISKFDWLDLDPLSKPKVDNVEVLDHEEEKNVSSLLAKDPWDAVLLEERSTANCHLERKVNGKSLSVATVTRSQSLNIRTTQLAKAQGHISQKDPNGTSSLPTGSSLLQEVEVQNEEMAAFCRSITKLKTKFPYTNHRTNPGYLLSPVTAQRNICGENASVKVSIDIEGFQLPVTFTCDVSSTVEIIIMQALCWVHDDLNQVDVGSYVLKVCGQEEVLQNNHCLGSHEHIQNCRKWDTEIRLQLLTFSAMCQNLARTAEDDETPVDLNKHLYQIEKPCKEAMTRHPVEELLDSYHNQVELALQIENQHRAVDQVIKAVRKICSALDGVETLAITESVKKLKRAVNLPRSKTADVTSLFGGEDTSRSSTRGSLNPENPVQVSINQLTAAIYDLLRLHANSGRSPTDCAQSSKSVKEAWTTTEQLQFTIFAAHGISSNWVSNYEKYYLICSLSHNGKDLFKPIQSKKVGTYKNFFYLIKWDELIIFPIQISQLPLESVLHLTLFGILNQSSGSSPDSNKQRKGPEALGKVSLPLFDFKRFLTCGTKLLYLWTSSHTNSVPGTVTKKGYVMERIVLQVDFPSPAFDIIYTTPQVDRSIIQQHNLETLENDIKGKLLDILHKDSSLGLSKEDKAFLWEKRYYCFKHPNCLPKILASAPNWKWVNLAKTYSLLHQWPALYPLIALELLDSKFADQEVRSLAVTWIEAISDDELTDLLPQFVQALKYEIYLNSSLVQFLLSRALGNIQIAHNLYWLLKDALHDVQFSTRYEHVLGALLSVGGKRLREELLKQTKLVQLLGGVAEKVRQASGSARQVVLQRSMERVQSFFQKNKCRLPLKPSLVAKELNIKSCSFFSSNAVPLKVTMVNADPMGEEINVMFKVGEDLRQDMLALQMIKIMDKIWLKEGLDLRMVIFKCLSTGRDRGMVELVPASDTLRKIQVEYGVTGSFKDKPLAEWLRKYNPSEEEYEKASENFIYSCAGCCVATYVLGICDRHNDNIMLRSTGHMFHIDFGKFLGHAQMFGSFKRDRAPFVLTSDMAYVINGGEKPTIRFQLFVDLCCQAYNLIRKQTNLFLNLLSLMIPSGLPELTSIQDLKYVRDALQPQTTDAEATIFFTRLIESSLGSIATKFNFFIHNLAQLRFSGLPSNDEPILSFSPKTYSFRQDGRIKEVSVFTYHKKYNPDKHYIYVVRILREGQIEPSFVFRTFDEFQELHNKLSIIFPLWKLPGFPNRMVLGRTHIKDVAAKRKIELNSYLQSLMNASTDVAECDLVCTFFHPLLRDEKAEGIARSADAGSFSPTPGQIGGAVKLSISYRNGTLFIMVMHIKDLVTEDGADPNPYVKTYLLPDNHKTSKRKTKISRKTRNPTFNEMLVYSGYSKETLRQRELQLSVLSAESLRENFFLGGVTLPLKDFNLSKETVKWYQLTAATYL
Phosphatidylinositol 4,5-bisphosphate 3-kinase catalytic subunit beta isoform, sequence (P42338 whole entry, the tested form may be a part, canonical isoform): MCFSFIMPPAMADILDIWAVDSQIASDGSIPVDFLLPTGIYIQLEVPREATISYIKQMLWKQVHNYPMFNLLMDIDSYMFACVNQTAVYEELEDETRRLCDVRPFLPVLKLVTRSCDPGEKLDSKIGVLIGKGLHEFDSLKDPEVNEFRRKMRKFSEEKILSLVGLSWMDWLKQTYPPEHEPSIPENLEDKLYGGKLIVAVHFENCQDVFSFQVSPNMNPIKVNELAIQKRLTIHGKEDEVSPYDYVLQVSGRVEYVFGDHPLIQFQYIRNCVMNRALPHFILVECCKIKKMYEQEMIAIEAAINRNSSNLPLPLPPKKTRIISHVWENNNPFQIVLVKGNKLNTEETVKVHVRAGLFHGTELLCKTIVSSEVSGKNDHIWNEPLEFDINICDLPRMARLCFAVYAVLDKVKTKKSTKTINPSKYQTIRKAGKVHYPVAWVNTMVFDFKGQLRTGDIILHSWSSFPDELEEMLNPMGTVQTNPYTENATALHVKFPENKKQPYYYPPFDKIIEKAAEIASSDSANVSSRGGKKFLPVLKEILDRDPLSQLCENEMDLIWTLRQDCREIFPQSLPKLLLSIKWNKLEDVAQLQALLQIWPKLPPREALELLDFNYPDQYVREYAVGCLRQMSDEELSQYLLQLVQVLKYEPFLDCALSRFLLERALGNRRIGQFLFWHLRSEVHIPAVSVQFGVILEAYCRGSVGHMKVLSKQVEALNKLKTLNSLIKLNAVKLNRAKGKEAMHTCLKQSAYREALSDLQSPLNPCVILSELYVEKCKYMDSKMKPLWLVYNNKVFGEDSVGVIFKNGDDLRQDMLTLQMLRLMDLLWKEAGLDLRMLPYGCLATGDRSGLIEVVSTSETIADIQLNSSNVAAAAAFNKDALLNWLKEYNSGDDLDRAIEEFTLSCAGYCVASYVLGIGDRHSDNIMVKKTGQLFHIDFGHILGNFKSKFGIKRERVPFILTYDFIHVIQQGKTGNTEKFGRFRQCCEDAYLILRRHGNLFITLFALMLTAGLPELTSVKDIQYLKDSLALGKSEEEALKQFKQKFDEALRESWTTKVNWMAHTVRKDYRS

For the compound `Cc1c(Cn2c(C)nc(=O)c3sc(N4CCOCC4)nc32)cccc1C(F)(F)F`, in the experiment listed under Homo sapiens [1], the Ratio IC50 was determined as 6. In addition, half-maximal inhibition in experiment [2] (IC50) was put at 0.016 µM.

In the case of `CN(C)C(=O)c1ccc2c(c1)c(C[C@H]1COCCN1c1nc3c(s1)C(=O)NC(C)(C)C3)cn2C`, the inhibition in experiment [3] is 21%; in experiment [4] it was 90%; in [5] it was 93%; in experiment [6], -3%; in experiment [7], -3%; in experiment [8], 74%. Moreover, the inhibition in [9] was -3%; in experiment [11], 46%; in experiment [12], 49%; in [13] it was 36%; in [14] it was 17%; in experiment [15] it was 0%. Moreover, the inhibition in experiment [17] was -4%; in [18], 6%; in experiment [19], 27%; in experiment [20], 16%; in [21], 78%; in [22] it was 10%. Also, the inhibition in experiment [23] is 93%. Further, it took 9.57 µM to reach half-maximal inhibition in [10] (IC50). For the same compound, in the experiment filed under Homo sapiens [16], the Ratio IC50 came out at 449.

Source of the values: ChEMBL document CHEMBL4806966, “Methods for treating centronuclear myopathy” (2020).
